Laboratory results reported in ChEMBL document CHEMBL1146065, “Structure-based optimization of azole antifungal agents by CoMFA, CoMSIA, and molecular docking” (2006).
≈ marks a conversion by molar mass, not a printed value. Each block holds one compound with its values, some of them ahead of it.

Columns and labels:
Format in all cases: functional
[1] = test system: Candida albicans; test: Antifungal activity against Candida albicans
[2] = test system: Candida parapsilosis; test: Antifungal activity against Candida parapsilosis; conditions: Lodderomyces parapsilosis
[3] = test system: Candida tropicalis; test: Antifungal activity against Candida tropicalis
[4] = test system: Cryptococcus neoformans; test: Antifungal activity against Cryptococcus neoformans
[5] = test system: Aspergillus fumigatus; test: Antifungal activity against Aspergillus fumigatus
[6] = test system: Fonsecaea pedrosoi; test: Antifungal activity against Fonsecaea pedrosoi
[7] = test system: Trichophyton rubrum; test: Antifungal activity against Trichophyton rubrum
[8] = test system: Sporothrix schenckii; test: Antifungal activity against Sporothrix schenckii

MIC80 [1]: 0.035 µM
Structure (SMILES): O=Cc1ccc(N2CCN(CC(O)(Cn3cncn3)c3ccc(F)cc3F)CC2)cc1 (stereo unspecified)

MIC80 [1]: 1.03 µM
Structure (SMILES): CC(C)(C)c1ccc(C(=O)N2CCN(CC(O)(Cn3cncn3)c3ccc(F)cc3F)CC2)cc1 (stereo unspecified)

MIC80 [1]: 16.9 µM
Structure (SMILES): O=C(c1cccc([N+](=O)[O-])c1)N1CCN(CC(O)(Cn2cncn2)c2ccc(F)cc2F)CC1 (stereo unspecified)

MIC80 [1]: 0.0339 µM
Structure (SMILES): CC(=O)c1ccc(N2CCN(CC(O)(Cn3cncn3)c3ccc(F)cc3F)CC2)cc1 (stereo unspecified)

MIC80 [1]: 2.34 µM
Structure (SMILES): Cc1ccc(CN2CCN(CC(O)(Cn3cncn3)c3ccc(F)cc3F)CC2)cc1 (stereo unspecified)

MIC80 [1]: 0.137 µM
Structure (SMILES): CC(C)(C)c1ccc(N2CCN(CC(O)(Cn3cncn3)c3ccc(F)cc3F)CC2)cc1 (stereo unspecified)

MIC80 [1]: 36.2 µM
Structure (SMILES): Nc1ccc(C(=O)N2CCN(CC(O)(Cn3cncn3)c3ccc(F)cc3F)CC2)cc1 (stereo unspecified)

MIC80 [1]: 36.2 µM
Structure (SMILES): Cc1ccccc1C(=O)N1CCN(CC(O)(Cn2cncn2)c2ccc(F)cc2F)CC1 (stereo unspecified)

MIC80 [1]: 0.254 µM
Structure (SMILES): OC(CN1CCN(Cc2ccc(Br)cc2)CC1)(Cn1cncn1)c1ccc(F)cc1F (stereo unspecified)

MIC80 [1]: 0.541 µM
Structure (SMILES): O=C(c1ccc(Cl)cc1)N1CCN(CC(O)(Cn2cncn2)c2ccc(F)cc2F)CC1 (stereo unspecified)

MIC80 [1]: 0.034 µM
Structure (SMILES): CC(C)(C)c1ccc(CN2CCN(CC(O)(Cn3cncn3)c3ccc(F)cc3F)CC2)cc1 (stereo unspecified)

MIC80 [1]: 2.34 µM
Structure (SMILES): O=C(c1ccccc1)N1CCN(CC(O)(Cn2cncn2)c2ccc(F)cc2F)CC1 (stereo unspecified)

MIC80 [1]: 0.116 µM
Structure (SMILES): OC(CN1CCN(Cc2ccc(I)cc2)CC1)(Cn1cncn1)c1ccc(F)cc1F (stereo unspecified)

MIC80 [1]: 17.5 µM
Structure (SMILES): COc1ccccc1C(=O)N1CCN(CC(O)(Cn2cncn2)c2ccc(F)cc2F)CC1 (stereo unspecified)

MIC80 [1]: 18.1 µM
Structure (SMILES): Cc1ccc(C(=O)N2CCN(CC(O)(Cn3cncn3)c3ccc(F)cc3F)CC2)cc1 (stereo unspecified)

The remaining lines, values behind:

Structure (SMILES): OC(CN1CCN(c2cc(C(F)(F)F)cc(Cl)n2)CC1)(Cn1cncn1)c1ccc(F)cc1F (stereo unspecified)
MIC80 [1]: 0.124 µM

Structure (SMILES): COc1ccc(C(=O)Cn2ncn(-c3ccc(CN(C)CC(O)(Cn4cncn4)c4ccc(F)cc4F)cc3)c2=O)cc1 (stereo unspecified)
MIC80 [1]: 0.016 µg/mL
MIC80 [2]: 0.03 µg/mL (≈ 0.0509 µM)
MIC80 [3]: 0.125 µg/mL (≈ 0.212 µM)
MIC80 [4]: 8 µg/mL (≈ 13.6 µM)
MIC80 [5]: 32 µg/mL (≈ 54.3 µM)
MIC80 [6]: 1 µg/mL (≈ 1.7 µM)
MIC80 [7]: 4 µg/mL (≈ 6.78 µM)
MIC80 [8]: 64 µg/mL (≈ 109 µM)

Structure (SMILES): CN(Cc1ccc(-n2cnn(Cc3ccc(Cl)cc3Cl)c2=O)cc1)CC(O)(Cn1cncn1)c1ccc(F)cc1F (stereo unspecified)
MIC80 [1]: 0.002 µg/mL
MIC80 [2]: 0.008 µg/mL (≈ 0.0133 µM)
MIC80 [3]: 0.0625 µg/mL (≈ 0.104 µM)
MIC80 [4]: 0.008 µg/mL (≈ 0.0133 µM)
MIC80 [5]: 2 µg/mL (≈ 3.33 µM)
MIC80 [6]: 0.125 µg/mL (≈ 0.208 µM)
MIC80 [7]: 0.25 µg/mL (≈ 0.416 µM)
MIC80 [8]: 4 µg/mL (≈ 6.66 µM)

Structure (SMILES): CN(Cc1ccc(-n2cnn(Cc3cccc(Cl)c3)c2=O)cc1)CC(O)(Cn1cncn1)c1ccc(F)cc1F (stereo unspecified)
MIC80 [1]: 0.016 µg/mL
MIC80 [2]: 4 µg/mL (≈ 7.07 µM)
MIC80 [3]: 0.5 µg/mL (≈ 0.883 µM)
MIC80 [4]: 0.5 µg/mL (≈ 0.883 µM)
MIC80 [5]: 8 µg/mL (≈ 14.1 µM)
MIC80 [6]: 0.125 µg/mL (≈ 0.221 µM)
MIC80 [7]: 0.5 µg/mL (≈ 0.883 µM)
MIC80 [8]: 32 µg/mL (≈ 56.5 µM)

Structure (SMILES): CN(Cc1ccc(-n2cnn(CC(=O)c3ccccc3)c2=O)cc1)CC(O)(Cn1cncn1)c1ccc(F)cc1F (stereo unspecified)
MIC80 [1]: 0.016 µg/mL
MIC80 [2]: 0.008 µg/mL (≈ 0.0143 µM)
MIC80 [3]: 0.0625 µg/mL (≈ 0.112 µM)
MIC80 [4]: 8 µg/mL (≈ 14.3 µM)
MIC80 [5]: 64 µg/mL (≈ 114 µM)
MIC80 [6]: 1 µg/mL (≈ 1.79 µM)
MIC80 [7]: 8 µg/mL (≈ 14.3 µM)
MIC80 [8]: 64 µg/mL (≈ 114 µM)

Structure (SMILES): Cc1cccc(CN2CCN(CC(O)(Cn3cncn3)c3ccc(F)cc3F)CC2)c1 (stereo unspecified)
MIC80 [1]: 0.292 µM

Structure (SMILES): OC(CN1CCN(Cc2ccc(Cl)cc2)CC1)(Cn1cncn1)c1ccc(F)cc1F (stereo unspecified)
MIC80 [1]: 0.0357 µM

Structure (SMILES): OC(CN1CCN(Cc2ccccc2F)CC1)(Cn1cncn1)c1ccc(F)cc1F (stereo unspecified)
MIC80 [1]: 4.64 µM

Structure (SMILES): Cc1cccc(Cn2ncn(-c3ccc(CN(C)CC(O)(Cn4cncn4)c4ccc(F)cc4F)cc3)c2=O)c1 (stereo unspecified)
MIC80 [1]: 0.004 µg/mL
MIC80 [2]: 0.008 µg/mL (≈ 0.0147 µM)
MIC80 [3]: 0.125 µg/mL (≈ 0.229 µM)
MIC80 [4]: 1 µg/mL (≈ 1.83 µM)
MIC80 [5]: 16 µg/mL (≈ 29.3 µM)
MIC80 [6]: 1.25 µg/mL (≈ 2.29 µM)
MIC80 [7]: 0.5 µg/mL (≈ 0.916 µM)
MIC80 [8]: 64 µg/mL (≈ 117 µM)

Structure (SMILES): OC(CN1CCN(c2ccccn2)CC1)(Cn1cncn1)c1ccc(F)cc1F (stereo unspecified)
MIC80 [1]: 0.156 µM

Structure (SMILES): OC(CN1CCN(Cc2ccc(F)cc2Br)CC1)(Cn1cncn1)c1ccc(F)cc1F (stereo unspecified)
MIC80 [1]: 0.122 µM

Structure (SMILES): CCC(C)n1ncn(-c2ccc(N3CCN(c4ccc(OCC5COC(Cn6cncn6)(c6ccc(Cl)cc6Cl)O5)cc4)CC3)cc2)c1=O (stereo unspecified) [ITRACONAZOLE]
MIC80 [1]: 0.125 µg/mL
MIC80 [2]: 0.25 µg/mL (≈ 0.354 µM)
MIC80 [3]: 0.125 µg/mL (≈ 0.177 µM)
MIC80 [4]: 2 µg/mL (≈ 2.83 µM)
MIC80 [5]: 1 µg/mL (≈ 1.42 µM)
MIC80 [6]: 0.5 µg/mL (≈ 0.709 µM)
MIC80 [7]: 1 µg/mL (≈ 1.42 µM)

Structure (SMILES): OC(CN1CCN(Cc2cccc(I)c2)CC1)(Cn1cncn1)c1ccc(F)cc1F (stereo unspecified)
MIC80 [1]: 0.232 µM

Structure (SMILES): OC(CN1CCN(Cc2ccc(Cl)cc2Cl)CC1)(Cn1cncn1)c1ccc(F)cc1F (stereo unspecified)
MIC80 [1]: 0.0331 µM

Structure (SMILES): O=[N+]([O-])c1ccc(Cl)c(CN2CCN(CC(O)(Cn3cncn3)c3ccc(F)cc3F)CC2)c1 (stereo unspecified)
MIC80 [1]: 0.254 µM
